Results from PubChem BioAssay (NCI).
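Here, GI50 denotes the concentration required for 50% inhibition of growth. Definition used: TGI = concentration required for complete inhibition of growth.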

How the values were obtained:
Assay in all cases: NCI anticancer screen, dose series, 384-well format
HOP-62 NSCLC = test system: HOP-62 NSCLC
UACC-62 melanoma = test system: UACC-62 melanoma
SK-MEL-2 melanoma = test system: SK-MEL-2 melanoma
MDA-MB-435 melanoma = test system: MDA-MB-435 melanoma
MALME-3M melanoma = test system: MALME-3M melanoma
SK-MEL-5 melanoma = test system: SK-MEL-5 melanoma
SNB-19 CNS = test system: SNB-19 CNS
UACC-257 melanoma = test system: UACC-257 melanoma
SNB-75 CNS = test system: SNB-75 CNS
A498 renal = test system: A498 renal
PC-3 prostate = test system: PC-3 prostate
CAKI-1 renal = test system: CAKI-1 renal

CC(F)(F)c1cc(F)ccc1-c1sc2cc(O)ccc2c1Oc1ccc(/C=C/C(=O)O)cc1
GI50 (HOP-62 NSCLC): 9.88 µM | TGI (HOP-62 NSCLC): 21.8 µM | GI50 (UACC-62 melanoma): 9.94 µM | TGI (UACC-62 melanoma): 21.6 µM | GI50 (SK-MEL-2 melanoma): 13.6 µM | TGI (SK-MEL-2 melanoma): 28.9 µM | GI50 (MDA-MB-435 melanoma): 3.24 µM | TGI (MDA-MB-435 melanoma): 12.8 µM | GI50 (MALME-3M melanoma): 13.5 µM | TGI (MALME-3M melanoma): 27.8 µM | GI50 (SK-MEL-5 melanoma): 12.2 µM | TGI (SK-MEL-5 melanoma): 24.7 µM | GI50 (SNB-19 CNS): 12.7 µM | TGI (SNB-19 CNS): 25.6 µM | GI50 (UACC-257 melanoma): 17 µM | TGI (UACC-257 melanoma): 36.4 µM | GI50 (SNB-75 CNS): 15.5 µM | TGI (SNB-75 CNS): 33 µM | GI50 (A498 renal): 13.3 µM | TGI (A498 renal): 29.1 µM | GI50 (PC-3 prostate): 13.9 µM | TGI (PC-3 prostate): 28.1 µM | GI50 (CAKI-1 renal): 15.1 µM | TGI (CAKI-1 renal): 29.9 µM
